Patent US9982005B2, “Macrolides and methods of their preparation and use” (President and Fellows of Harvard College, priority 2013, dated 2018)
In brackets after ≈: the same amount, converted by molar mass. Like-named read-outs stand apart in the source and are kept apart here.

Experiments:
Format in all cases: cell-based
[1] = system: E. coli strains; assay: MIC against E. coli strains (Table M7); settings: for MIC: Escherichia coli, ATCC25922, E. coli ATCC 25922
Source text: (§1) We have collected MIC data for a total of 50 novel macrolides that this platform has produced against over 21 unique strains of B. subtilis, E. coli, S. aureus, S. pneumoniae, and H. influenzae, including several multidrug-resistant strains, with a special focus on macrolide resistant mechanisms (vide supra). Azithromycin was included as a control macrolide. CLSI standard procedures for broth dilution MIC determination were used. […] These genotypes can be constitutive or inducible. The finding that C4-epi (unnatural) isomers of the “azaketolide” macrolide class have enhanced activities relative to C4 natural isomers is very exciting.

[2] = system: A. baumannii strains; assay: MIC against A. baumannii strains (Table M8); settings: for MIC: Acinetobacter baumannii, BAA747, A. baumannii BAA747-1
[3] = system: H. influenzae strains; assay: MIC against H. influenzae strains (Table M8); settings: for MIC: Haemophilus influenzae
Source text: as §1

[4] = system: S. pneumoniae strains; assay: MIC against S. pneumoniae strains (Tables M7, M8); settings: for MIC: Streptococcus pneumoniae
Source text: CLSI standard procedures for broth dilution MIC determination were used. […] These genotypes can be constitutive or inducible.

[5] = system: K. pneumoniae strains; assay: MIC against K. pneumoniae strains (Table M8); settings: for MIC: Klebsiella pneumoniae, K. pneumoniae 10031
[6] = system: S. aureus strains; assay: MIC against S. aureus strains (Table M7); settings: for MIC: Staphylococcus aureus
Source text: as §1

[7] = system: E. faecalis strains; assay: MIC against E. faecalis strains (Table M8); settings: for MIC: Enterococcus faecalis, E. faecalis 29212
[8] = H. influenzae 49247, read-out: MIC H. influenzae (49247)
[9] = H. influenzae 49766, read-out: MIC H. influenzae (49766)
[10] = S. pneumoniae 160, read-out: MIC S. pneumonae (160)
[11] = S. pneumoniae 1509, read-out: MIC S. pneumoniae (1509)
[12] = S. pneumoniae 1533, read-out: MIC S. pneumoniae (1533)
[13] = S. pneumoniae 1537, read-out: MIC S. pneumoniae (1537)
[14] = S. pneumoniae 49619, read-out: MIC S. pneumoniae (49619)
[15] = ATCC29213, S. aureus ATCC 29213, read-out: MIC S. aureus (ATCC 29213)
[16] = S. aureus 183, read-out: MIC S. aureus (183)
[17] = S. aureus 506, read-out: MIC S. aureus (506)
[18] = S. aureus 1708, read-out: MIC S. aureus (1708)
[19] = USA300, S. aureus USA300, read-out: MIC S. aureus (USA300)

Row | SMILES | MIC [1] [µg/mL] | MIC [2] [µg/mL] | MIC [3, 8] [µg/mL] | MIC [3, 9] [µg/mL] | MIC [4, 10] [µg/mL] | MIC [4, 11] [µg/mL] | MIC [4, 12] [µg/mL] | MIC [4, 13] [µg/mL] | MIC [4, 14] [µg/mL] | MIC [5] [µg/mL] | MIC [6, 15] [µg/mL] | MIC [6, 16] [µg/mL] | MIC [6, 17] [µg/mL] | MIC [6, 18] [µg/mL] | MIC [6, 19] [µg/mL] | MIC [7] [µg/mL] | further results
1 | CC[C@H]1OC(=O)[C@H](CC#N)C(=O)[C@H](C)[C@@H](O[C@@H]2OC(C)CC(N(C)C)C2O)[C@](C)(OC)C[C@@H](C)CN[C@H](C)[C@H]2N(CCCCn3cc(-c4cccc(N)c4)nn3)C(=O)O[C@]12C (stereo partly drawn) [FSM-56160] | > 32 | > 32 | 8 (≈ 9.38 µM) | 32 (≈ 37.5 µM) | 2 (≈ 2.34 µM) | > 32 | > 32 | > 32 | 16 (≈ 18.8 µM) | 8 (≈ 9.38 µM) | > 32 | > 32 | > 32 | > 32 | > 32 | 8 (≈ 9.38 µM) | 
2 | CC[C@H]1OC(=O)[C@H](C)C(O)[C@H](C)[C@@H](O[C@@H]2OC(C)CC(N(C)C)C2O)[C@](C)(OC)C[C@@H](C)CN(C)[C@H](C)[C@H]2N(CCCCn3cc(-c4cccc(N)c4)nn3)C(=O)O[C@]12C (stereo partly drawn) [FSM-21335] | 32 (≈ 37.9 µM) | > 32 | 4 (≈ 4.74 µM) | 32 (≈ 37.9 µM) | 0.25 (≈ 0.296 µM) | > 32 | > 32 | > 32 | 1 (≈ 1.18 µM) | 4 (≈ 4.74 µM) | > 32 | > 32 | > 32 | > 32 | 32 (≈ 37.9 µM) | 16 (≈ 19 µM) | 
3 | CC[C@H]1OC(=O)C(C)(F)C(=O)[C@H](C)[C@@H](O[C@@H]2OC(C)CC(N(C)C)C2O)[C@](C)(OC/C=C/c2cnc3ccccc3c2)C[C@@H](C)CN[C@H](C)[C@H]2NC(=O)O[C@@]21C (stereo partly drawn) [FSM-21088] | > 32 | > 32 | 8 (≈ 10.2 µM) | > 32 | 0.5 (≈ 0.637 µM) | > 32 | > 32 | > 32 | 2 (≈ 2.55 µM) | > 32 | 16 (≈ 20.4 µM) | > 32 | > 32 | 8 (≈ 10.2 µM) | 16 (≈ 20.4 µM) | 8 (≈ 10.2 µM) | 
4 | CC[C@H]1OC(=O)[C@H](C)C(=O)[C@H](C)[C@@H](O[C@@H]2OC(C)CC(N(C)C)C2O)[C@](C)(OC)C[C@@H](C)CN[C@H](Cc2ccccc2)[C@H]2N(CCCCn3cc(-c4cccc(N)c4)nn3)C(=O)O[C@]12C (stereo partly drawn) [FSM-60353] | 32 (≈ 35.4 µM) | 32 (≈ 35.4 µM) | 2 (≈ 2.21 µM) | 8 (≈ 8.85 µM) | ≤ 0.0625 | 1 (≈ 1.11 µM) | 32 (≈ 35.4 µM) | 32 (≈ 35.4 µM) | ≤ 0.0625 | 8 (≈ 8.85 µM) | 0.5 (≈ 0.553 µM) | > 32 | > 32 | 0.5 (≈ 0.553 µM) | 0.5 (≈ 0.553 µM) | 0.25 (≈ 0.276 µM) | 
5 | CC[C@H]1OC(=O)C(C)C(=O)[C@H](C)[C@@H](O[C@@H]2OC(C)CC(N(C)C)C2O)[C@](C)(OC/C=C/c2cnc3ccccc3c2)C[C@@H](C)CN(C)[C@H](C)[C@H]2NC(=O)O[C@@]21C (stereo partly drawn) [FSM-21118] | 8 (≈ 10.2 µM) | 32 (≈ 41 µM) | 2 (≈ 2.56 µM) | 8 (≈ 10.2 µM) | ≤ 0.0625 | 1 (≈ 1.28 µM) | > 32 | 32 (≈ 41 µM) | 0.125 (≈ 0.16 µM) | 2 (≈ 2.56 µM) | 1 (≈ 1.28 µM) | > 32 | > 32 | 1 (≈ 1.28 µM) | 2 (≈ 2.56 µM) | 0.5 (≈ 0.64 µM) | 
6 | C=CC[C@@]1(OC)C[C@@H](C)CN[C@H](C)[C@H]2N(CCCCn3cc(-c4cccc(N)c4)nn3)C(=O)O[C@]2(C)[C@@H](CC)OC(=O)[C@H](C)C(=O)[C@@H](C)[C@H]1O[C@@H]1OC(C)CC(N(C)C)C1O (stereo in doubt) [FSM-21368] |  |  |  |  |  |  |  |  |  |  |  |  |  |  |  |  | MIC E. coli (ATCC 25922) ([1]; E. coli ATCC 25922): 8 µg/mL (≈ 9.37 µM); MIC A. baumannii (BAA747-1) ([2]; A. baumannii BAA747-1): 16 µg/mL (≈ 18.7 µM); MIC H. influenzae (49247) ([3]; H. influenzae 49247): 2 µg/mL (≈ 2.34 µM); MIC H. influenzae (49766) ([3]; H. influenzae 49766): 8 µg/mL (≈ 9.37 µM); MIC S. pneumonae (160) ([4]; S. pneumoniae 160): 0.25 µg/mL (≈ 0.293 µM); MIC S. pneumoniae (1509) ([4]; S. pneumoniae 1509): 8 µg/mL (≈ 9.37 µM); MIC S. pneumoniae (1533) ([4]; S. pneumoniae 1533): >32 µg/mL; MIC S. pneumoniae (1537) ([4]; S. pneumoniae 1537): >32 µg/mL; MIC S. pneumoniae (49619) ([4]; S. pneumoniae 49619): 1 µg/mL (≈ 1.17 µM); MIC K. pneumoniae (10031) [5]: 4 µg/mL (≈ 4.68 µM); MIC S. aureus (183) ([6]; S. aureus 183): >32 µg/mL; MIC S. aureus (506) ([6]; S. aureus 506): >32 µg/mL; MIC S. aureus (1708) ([6]; S. aureus 1708): 16 µg/mL (≈ 18.7 µM); MIC S. aureus (ATCC 29213) ([6]; S. aureus ATCC 29213): 8 µg/mL (≈ 9.37 µM); MIC S. aureus (USA300) ([6]; S. aureus USA300): 8 µg/mL (≈ 9.37 µM); MIC E. faecalis (29212) [7]: 2 µg/mL (≈ 2.34 µM)
